Literature values, collected in PMC8513935.

Tests used:
[1] = log P octanol/water from commercial databases, averaged (the ESI); conditions: Octanol (wet), 25 C
[2] = experimental, compiled by the authors from the literature (the ESI cites the sources)
[3] = derived by the authors as gas->solvent minus gas->water (a hypothetical dry solvent; the ESI), not a two-phase measurement

Row | Compound | log K of transfer, water to solvent [1] [log10 K] | log K of transfer, gas to solvent ([2]; Butan-1-ol, 25 C) [log10 K] | log K of transfer, gas to solvent ([2]; Chloroform, 25 C) [log10 K] | log K of transfer, gas to solvent ([2]; Cyclohexane, 25 C) [log10 K] | log K of transfer, gas to solvent ([2]; Hexadecane, 25 C) [log10 K] | log K of transfer, gas to solvent ([2]; Propan-1-ol, 25 C) [log10 K] | log K of transfer, gas to solvent ([2]; Water, 25 C) [log10 K] | log K of transfer, water to solvent ([3]; Butan-1-ol, 25 C) [log10 K] | log K of transfer, water to solvent ([3]; Chloroform, 25 C) [log10 K] | log K of transfer, water to solvent ([3]; Cyclohexane, 25 C) [log10 K] | log K of transfer, water to solvent ([3]; Hexadecane, 25 C) [log10 K] | log K of transfer, water to solvent ([3]; Propan-1-ol, 25 C) [log10 K] | log K of transfer, gas to solvent ([2]; Hexane, 25 C) [log10 K] | log K of transfer, gas to solvent ([2]; Perfluoroalkane, 25 C) [log10 K] | log K of transfer, gas to solvent ([2]; Propan-2-ol, 25 C) [log10 K] | log K of transfer, water to solvent ([3]; Hexane, 25 C) [log10 K] | log K of transfer, water to solvent ([3]; Perfluoroalkane, 25 C) [log10 K] | log K of transfer, water to solvent ([3]; Propan-2-ol, 25 C) [log10 K] | further results
1 | Cc1cccnc1 | 1.2 | 4.7 | 5.39 | 3.77 | 3.63 | 4.65 | 3.5 | 1.2 | 1.89 | 0.27 | 0.131 | 1.15 |  |  |  |  |  |  | log K of transfer, gas to solvent ([2]; 2-Methylpropan-2-ol, 25 C): 4.27 log10 K; log K of transfer, water to solvent ([3]; 2-Methylpropan-2-ol, 25 C): 0.77 log10 K
2 | C1CC1 | 1.72 | 1.26 |  |  | 1.31 | 1.15 | -0.55 | 1.81 |  |  | 1.86 | 1.7 | 1.45 | 0.888 | 1.16 | 2 | 1.44 | 1.71 | 
3 | O | -1.38 |  | 1.54 | 0.29 | 0.245 |  | 4.69 |  | -3.15 | -4.4 | -4.44 |  | 0.54 | 0.33 | 3.41 | -4.15 | -4.36 | -1.28 | log K of transfer, gas to solvent ([2]; Benzene, 25 C): 1.25 log10 K; log K of transfer, gas to solvent ([2]; CCl4, 25 C): 0.64 log10 K; log K of transfer, gas to solvent ([2]; Dichloromethane, 25 C): 1.94 log10 K; log K of transfer, gas to solvent ([2]; Ethanol, 25 C): 3.72 log10 K; log K of transfer, gas to solvent ([2]; Methanol, 25 C): 4.07 log10 K; log K of transfer, gas to solvent ([2]; Propanone, 25 C): 3.22 log10 K; log K of transfer, gas to solvent ([2]; Tetrahydrofuran, 25 C): 2.91 log10 K; log K of transfer, gas to solvent ([2]; Toluene, 25 C): 1.24 log10 K; log K of transfer, water to solvent ([3]; Acetone, 25 C): -1.47 log10 K; log K of transfer, water to solvent ([3]; Benzene, 25 C): -3.44 log10 K; log K of transfer, water to solvent ([3]; CCl4, 25 C): -4.05 log10 K; log K of transfer, water to solvent ([3]; Dichloromethane, 25 C): -2.75 log10 K; log K of transfer, water to solvent ([3]; Ethanol, 25 C): -0.97 log10 K; log K of transfer, water to solvent ([3]; Methanol, 25 C): -0.62 log10 K; log K of transfer, water to solvent ([3]; Tetrahydrofuran, 25 C): -1.78 log10 K; log K of transfer, water to solvent ([3]; Toluene, 25 C): -3.45 log10 K
